In ChEMBL document CHEMBL5352398 (Eur J Med Chem, 2022):
Activity calls are given as the source filed them. The rule behind the calls is not given here.

Assays:
[1] = biological target: T1, Solute carrier family 2, facilitated glucose transporter member 9 (Mus musculus) (UniProt Q3T9X0); assay: Inhibition of mouse GLUT9 transfected in human HEK293 cells assessed as inhibition of uric acid induced current at 10 uM by cell patch-clamp assay; type: cell-based
T1 sequence (whole entry): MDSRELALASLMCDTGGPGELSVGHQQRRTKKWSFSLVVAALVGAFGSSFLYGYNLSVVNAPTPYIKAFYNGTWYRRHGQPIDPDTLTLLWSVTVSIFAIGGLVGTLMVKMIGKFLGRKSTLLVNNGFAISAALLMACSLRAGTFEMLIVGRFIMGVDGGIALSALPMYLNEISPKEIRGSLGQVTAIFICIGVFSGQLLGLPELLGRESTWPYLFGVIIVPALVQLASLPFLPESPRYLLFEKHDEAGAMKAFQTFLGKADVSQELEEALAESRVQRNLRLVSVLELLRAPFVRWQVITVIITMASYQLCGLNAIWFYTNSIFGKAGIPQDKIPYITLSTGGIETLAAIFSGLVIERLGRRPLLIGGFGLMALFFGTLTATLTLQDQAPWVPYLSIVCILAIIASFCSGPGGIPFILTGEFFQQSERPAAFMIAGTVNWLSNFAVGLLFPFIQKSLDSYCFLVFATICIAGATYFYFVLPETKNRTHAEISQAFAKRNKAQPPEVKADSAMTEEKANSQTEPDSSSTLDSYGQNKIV

HepG2 = assay: Cytotoxicity against human HepG2 cells assessed as reduction in cell viability at 100 uM incubated for 72 hrs by MTT assay; type: toxicity, cell-based; settings: hepg2, 72 h
[2] = Renal toxicity in Kunming mouse assessed as effect on creatinine level at 50 mg/kg,po for 14 days; type: organism-based; settings: in vivo, 336 h, time 14 day
[3] = biological target: T2, Solute carrier family 22 member 6 (Homo sapiens, UniProt Q4U2R8); assay: Inhibition of OAT1 (unknown origin) transfected in HEK293 cells assessed as inhibition of 6-CFL uptake preincubated for 30 mins followed by 6-CFL addition and measured for 15 mins by fluorescence based microplate reader analysis; type: cell-based
T2 sequence (Q4U2R8 whole entry): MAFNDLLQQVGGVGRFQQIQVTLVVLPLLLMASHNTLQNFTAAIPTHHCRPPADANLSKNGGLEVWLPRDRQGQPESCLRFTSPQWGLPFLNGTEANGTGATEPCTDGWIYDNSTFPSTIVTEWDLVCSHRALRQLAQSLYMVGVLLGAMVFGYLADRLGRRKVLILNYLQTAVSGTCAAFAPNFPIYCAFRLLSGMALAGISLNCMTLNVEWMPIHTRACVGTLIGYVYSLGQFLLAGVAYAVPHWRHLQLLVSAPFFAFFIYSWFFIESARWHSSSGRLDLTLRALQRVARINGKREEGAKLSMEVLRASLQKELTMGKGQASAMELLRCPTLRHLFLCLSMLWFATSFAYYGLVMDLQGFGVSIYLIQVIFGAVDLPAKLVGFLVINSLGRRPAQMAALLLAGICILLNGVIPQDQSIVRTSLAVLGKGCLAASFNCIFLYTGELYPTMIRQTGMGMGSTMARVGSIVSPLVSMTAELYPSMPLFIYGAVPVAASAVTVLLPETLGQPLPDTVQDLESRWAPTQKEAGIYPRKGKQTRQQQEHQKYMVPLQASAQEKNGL

[4] = biological target: T3, Broad substrate specificity ATP-binding cassette transporter ABCG2 (Homo sapiens, UniProt Q9UNQ0); assay: Inhibition of ABCG2 (unknown origin) transfected in HEK293 cell membrane vesicle assessed as inhibition of 14C-uric acid uptake incubated for 15 mins in presence of ATP by liquid scintillation counter analysis; type: cell membranes
T3 sequence (Q9UNQ0 whole entry): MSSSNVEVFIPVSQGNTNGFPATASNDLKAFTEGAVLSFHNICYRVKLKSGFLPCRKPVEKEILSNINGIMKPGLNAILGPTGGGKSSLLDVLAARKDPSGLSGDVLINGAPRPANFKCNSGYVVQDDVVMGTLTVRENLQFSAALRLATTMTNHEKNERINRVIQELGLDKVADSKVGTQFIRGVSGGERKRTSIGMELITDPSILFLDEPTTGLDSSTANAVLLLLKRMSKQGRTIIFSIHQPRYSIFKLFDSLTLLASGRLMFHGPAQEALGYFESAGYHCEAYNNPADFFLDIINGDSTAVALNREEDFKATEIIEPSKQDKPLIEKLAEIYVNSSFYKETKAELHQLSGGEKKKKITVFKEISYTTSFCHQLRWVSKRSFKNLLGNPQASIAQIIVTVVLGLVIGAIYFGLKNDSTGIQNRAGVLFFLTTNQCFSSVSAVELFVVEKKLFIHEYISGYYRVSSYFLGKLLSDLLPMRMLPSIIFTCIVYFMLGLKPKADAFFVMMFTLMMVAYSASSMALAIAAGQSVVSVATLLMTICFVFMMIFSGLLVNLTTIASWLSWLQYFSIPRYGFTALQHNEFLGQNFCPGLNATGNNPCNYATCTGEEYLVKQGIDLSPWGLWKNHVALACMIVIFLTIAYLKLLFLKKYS

[5] = Tmax in Sprague-Dawley rat at 5 mg/kg, po and measured upto 24 hrs by LC-MS/MS analysis; type: ADME, organism-based; settings: in vivo
[6] = Half life in Sprague-Dawley rat at 5 mg/kg, iv and measured upto 24 hrs by LC-MS/MS analysis; type: ADME, organism-based; settings: in vivo
[7] = Oral bioavailability in Sprague-Dawley rat at 5 mg/kg and measured upto 24 hrs by LCMS analysis; type: ADME, organism-based; settings: in vivo
[8] = Cytotoxicity against human HepG2 cells assessed as inhibition of cell growth at 400 uM incubated for 72 hrs by MTT assay relative to control; type: toxicity, cell-based
[9] = Subacute toxicity in Kunming mouse assessed as animal death at 50 mg/kg,po for 14 days; type: organism-based; settings: in vivo, 336 h, time 14 day
[10] = Subacute toxicity in Kunming mouse assessed as anorexia at 50 mg/kg,po for 14 days; type: organism-based; settings: in vivo, 336 h, time 14 day
[11] = Subacute toxicity in Kunming mouse assessed as ruffled fur at 50 mg/kg,po for 14 days; type: organism-based; settings: in vivo, 336 h, time 14 day
[12] = Hepatotoxicity in Kunming mouse assessed as increase in ALT level in serum at 50 mg/kg,po for 14 days in presence of BSO; type: toxicity, organism-based; settings: in vivo, 336 h, time 14 day
[13] = Renal toxicity in Kunming mouse assessed as effect on BUN level at 50 mg/kg,po for 14 days; type: organism-based; settings: in vivo, 336 h, time 14 day
[14] = Hepatotoxicity in Kunming mouse assessed as reduction in serum GSH level at 50 mg/kg, ip and incubated for 1 hr relative to control; type: toxicity, organism-based; set-up: scale not given: the % may be the effect or the level left; settings: in vivo
[15] = Hepatotoxicity in Kunming mouse assessed as reduction in GSH level in serum at 50 mg/kg, ip and incubated for 1 hr (reference value: 41.68 uM); type: toxicity, organism-based; settings: in vivo
[16] = Toxicity in Kunming mouse assessed as irregular cell arrangements at 50 mg/kg, po and measured after 14 days by HE staining based microscopy; type: organism-based; settings: in vivo, 336 h, time 14 day
[17] = Toxicity in Kunming mouse assessed as steatosis in liver at 50 mg/kg, po and measured after 14 days by HE staining based microscopy; type: organism-based; settings: in vivo, 336 h, time 14 day
Mus musculus = assay: Anti-hyperuricemic activity against potassium oxonate induced hyperuricemia in Kunming mouse model assessed as decrease in serum urate level at 4 mg/kg, po and measured after 3 hrs; type: functional, organism-based

For `CCc1oc2ccccc2c1C(=O)c1cc(Br)c(O)c(Br)c1` [BENZBROMARONE], which inhibition [1] is on record?
The inhibition was 26%.

What about the Activity (HepG2) of the same compound?
Its Activity is “Toxic”.

And the Activity [2]?
Its Activity is “Non-Toxic”.

And the IC50 [3]?
The IC50 was 2.12 µM.

And the IC50 [4]?
The IC50 was 0.34 µM.

What about the Tmax [5] of the same compound?
The Tmax was 0.63 h.

What about the half-life [6] of the same compound?
Its half-life is 3.03 h.

And the bioavailability [7]?
The bioavailability was 36.1%.

What about the inhibition at 72 h, 400 µM [8] of the same compound?
The inhibition at 72 h, 400 µM was 65.7%.

What about the Activity [9] of the same compound?
The Activity was “Non-Toxic”.

What about the Activity [10] of the same compound?
The Activity was “Non-Toxic”.

What about the Activity [11] of the same compound?
Its Activity is “Non-Toxic”.

What about the Activity [12] of the same compound?
The Activity was “Non-Toxic”.

And the Activity [13]?
The Activity was “Non-Toxic”.

And the Activity [14]?
Its Activity is 74.29%.

And the Activity [15]?
The Activity was 10.72 µM.

And the Activity [16]?
Its Activity is “Non-Toxic”.

What about the Activity [17] of the same compound?
Its Activity is “Non-Toxic”.

What about the Activity (Mus musculus) of the same compound?
The Activity was “Active”.
